Assays:
BioSTING = target: T1, BioSTING (Mus musculus, UniProt Q3TBT3); assay: DRaCALA radioactive nucleotide binding assay of BioSTING; set-up: species or system murine; settings: excess (500 µM) unlabeled nucleotide
T1 construct: FRET pair mTFP and mKO2 at L152 and E335, respectively; His tag (N); made in house; host or cells: E. coli Rosetta (DE3)pLysS
T1 sequence (Q3TBT3 152-335): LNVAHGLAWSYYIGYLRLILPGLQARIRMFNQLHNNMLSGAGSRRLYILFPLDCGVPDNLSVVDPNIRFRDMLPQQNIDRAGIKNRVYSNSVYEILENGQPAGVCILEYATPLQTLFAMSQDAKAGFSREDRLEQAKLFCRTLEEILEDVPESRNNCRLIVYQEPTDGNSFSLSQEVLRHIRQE

STING-CTD (mSTING-CTD) = target: T2, STING-CTD (mSTING-CTD) (Mus musculus, UniProt Q3TBT3); assay: DRaCALA radioactive nucleotide binding assay of STING-CTD; set-up: species or system murine; settings: excess (500 µM) unlabeled nucleotide
T2 construct: made in house; host or cells: E. coli Rosetta (DE3)pLysS; plasmid pET28-mSTING-CTD, gift from Russell Vance
T2 sequence (Q3TBT3 134-378 limits assumed): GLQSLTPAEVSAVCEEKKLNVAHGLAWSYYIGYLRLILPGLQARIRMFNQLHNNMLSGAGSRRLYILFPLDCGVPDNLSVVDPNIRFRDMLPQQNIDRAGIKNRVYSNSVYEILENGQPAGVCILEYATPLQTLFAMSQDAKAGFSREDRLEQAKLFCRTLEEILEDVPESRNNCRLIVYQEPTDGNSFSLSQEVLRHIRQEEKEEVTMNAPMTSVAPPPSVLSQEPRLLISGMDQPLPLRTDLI

SMILES | competition of bound [32P] 2ʼ3ʼ-cGAMP by unlabeled nucleotide (BioSTING) | competition of bound [32P] 2ʼ3ʼ-cGAMP by unlabeled nucleotide (STING-CTD (mSTING-CTD))
Nc1ncnc2c1ncn2[C@@H]1O[C@H](COP(=O)(O)OP(=O)(O)OP(=O)(O)O)[C@@H](O)[C@H]1O [ATP] | not | not
Nc1nc2c(ncn2[C@@H]2O[C@H](COP(=O)(O)OP(=O)(O)OP(=O)(O)O)[C@@H](O)[C@H]2O)c(=O)[nH]1 [GTP] | not | not
Nc1nc2c(ncn2[C@@H]2O[C@@H]3COP(=O)(O)O[C@H]3[C@H]2O)c(=O)[nH]1 [cGMP] | not | not

— PMC7363834, “A STING-based biosensor affords broad cyclic dinucleotide detection within single living eukaryotic cells” (Nature Communications, 2020)
